The values that follow come from publication PMC8350397, “GSK137, a potent small-molecule BCL6 inhibitor with in vivo activity, suppresses antibody responses in mice” (The Journal of Biological Chemistry, 2021).

One data set relates to BCL6 BTB-POZ domain. As to conditions: read-out: potency on BCL6 BTB-POZ domain; cited from earlier work.
Data set [1] concerns TNP-specific IgM and IgG responses. Kind of data set: TNP-KLH immunization model, serum anti-TNP antibodies. Format: in vivo, mouse. As to the method: (§1) Male CD1 mice (30–40 g, 8–9 weeks of age) were randomized into study treatment groups, housed individually and allowed to acclimatize under standard laboratory conditions for a minimum of 5 days prior to commencement of the study. Mice received food and water ad libitum. The experiment was performed in a certified dedicated in vivo experimental laboratory at the GlaxoSmithKline Medicines Research Centre, Stevenage, United Kingdom. The four treatment groups were (1) unimmunized and untreated (naive group) (n = 4); (2) intraperitoneal vehicle (n = 13), (3) GSK137 15 mg/kg (n = 14), and (4) GSK137 30 mg/kg (n = 14). Groups (2) to (4) were given intraperitoneal immunization with TNP–KLH (100 μg) on day 0, vehicle was 1% methylcellulose in water + 0.1% sodium lauryl sulphate, and compound or vehicle was given to groups (2) to (4) by oral gavage three times per day from day −1 to day +12. Blood samples were collected by tail vein for measurement of compound, IgM and IgG levels on days 0, 5, 8, and 12 ahead of immunization/first daily dose. On day 8, blood samples were also taken (n = 7) at 0.5, 1.5, 3, 5, or 7 h after first daily dose. On day 12, spleens were collected, weighed, and placed into Dulbecco's modified Eagle's medium on wet ice for analysis by flow cytometry.
For antibody measurements, TNP–bovine serum albumin–coated plates were blocked, and then, standards or serum samples diluted 1:1000 or 1:2500 were incubated for 2 h at room temperature before biotinylated antimouse IgG or IgM antibodies were allowed to bind for 1 h at room temperature and detected using streptavidin-bound horseradish peroxidase incubated for 30 min, followed by the addition of 3,3′,5,5′-tetramethylbenzidine substrate for 15 min. The reaction was stopped, and the plates read at 450 nm by spectrophotometry. Plates were washed between each incubation step to remove unbound reagent. Data analysis was carried out in GraphPad Prism 5 (GraphPad Software, Inc) software using a four-parameter logistic fit of the standards response.

In another data set the test system is splenic germinal centers. Kind of data set: Spleen immunohistochemistry of germinal centers. Format: in vivo, mouse. As to the method:
Immunohistochemistry of GCs in spleens was obtained from a pilot experiment to test immunization conditions carried out at the University of Leicester using groups of C57BL/6J mice. One group of mice was immunized with TNP-KLH (100 μg) followed by treatment with GSK137 15 mg/kg by oral gavage three times per day from day -1 to day +12 (n = 3), whereas the other was treated with vehicle by oral gavage three times per day from day -1 to day +12 following immunization (n = 6). Formalin-fixed paraffin-embedded sections of mouse spleen were stained with antimouse B220/CD45R (BD Biosciences; catalog no. 550286), […] (Abcam; ab32064), and anti-Ki67 (Abcam; ab15580) antibodies using Opal Multiplex IHC detection kit (NEL810001KT; Akoya Biosciences). The sections were counterstained with 4',6-diamidino-2-phenylindole for 5 min and mounted with ProLong Diamond Antifade mountant (Invitrogen; P36970). Images were obtained using Vectra Polaris multicolor fluorescence scanner (Akoya Biosciences). Quantification was carried out by inForm image analysis software (Akoya Biosciences). Normality tests were carried out for the B220^+Ki67^+ and […]^+ data. Both datasets were normally distributed, and accordingly, statistical significance was determined by unpaired t test.

The subject of data set [2] is splenic GC B cells and Tfh cells. Kind of data set: TNP-KLH immunization model, flow cytometry of spleen cells. The following applies: for reduction of mean absolute number of Tfh cells per spleen vs vehicle: day 12, not statistically significant. Format: in vivo, mouse. The method, then: as §1
For cell measurements, spleens were passed through a […] cell strainer, red blood cells were lysed, and cells were resuspended in medium, counted, and 1 × 10^6 cells plated for staining. Cells were washed in PBS and resuspended in 100 μl viability dye (diluted 1:1000 in PBS) for 15 min at room temperature. About 100 μl cell-staining buffer (CSB; BioLegend; catalog no. 420201) was added to each well before centrifugation and removal of supernatants, and cell pellets were resuspended in 100 μl relevant cocktail of antibodies (Table S2) for surface staining and incubated for 30 min at 4 °C. Cells were then washed in CSB and resuspended in 200 μl of FoxP3 fixation and permeabilization buffer for 30 min for staining of intracellular markers for 30 min. Cells were washed in PermWash buffer and resuspended in CSB (250 μl) before acquisition of a Cytek Aurora spectral cytometer (Cytek). Gating was carried out as shown (Figs. S1 and S2), and data were analyzed on FlowJo 10 (Becton Dickinson). Cell frequency was used to calculate an absolute cell number per tissue from the total live cell counts from whole homogenized spleen. Data were normalized against background GC and Tfh quantified in naive mice prior to performing percent inhibition calculations.
Single cell suspensions were generated by passing spleens through a 40 µM cell strainer into medium (RPMI 1640 supplemented with 2% fetal calf serum, 1% penicillin / streptomycin, 1% L-glutamine). Following centrifugation (400 g, 5 minutes, 4 °C) and removal of supernatants, red blood cells were lysed by incubation in 1 mL lysis buffer for 1 minute at room temperature. Cells were resuspended in medium, counted on a Nucleocounter NC3000 (Chemometec, Lillerød, Denmark) and 1x10^6 cells plated into 96-well polypropylene plates for staining. Cells were washed in 200 µL PBS and resuspended in 100 µL viability dye (diluted 1:1000 in PBS) for 15 minutes at room temperature. 100 µL cell staining buffer (CSB) (BioLegend, San Diego, CA, USA, #420201) was added to each well before centrifugation and removal of supernatants. Cell pellets were resuspended in 100 µL relevant cocktail of antibodies (see Tables S2 and S3) for surface staining and incubated for 30 minutes at 4 °C. Cells were washed in CSB and resuspended in 200 uL of FoxP3 fixation and permeabilisation buffer for 30 minutes in the dark at room temperature, washed and stained for intracellular markers for 30 minutes at room temperature. Cells were washed in Permwash and resuspended in CSB (250 µL) before acquisition on a Cytek Aurora spectral cytometer (Cytek, Fremont, CA, USA). […]
For orientation: In flow cytometry, cells or beads pass a laser one at a time.

A short description of data set [3]: Chromatographic log D / property forecast index. Type of data set: physicochemical.

The structures appear in SMILES notation.

Take `CNC(=O)COc1cc2cc(Nc3nc(N4C[C@H](C)C[C@H](C)C4)ncc3Cl)ccc2n(C)c1=O` [BI3802, reference compound]: the IC50 in the data set on BCL6 BTB-POZ domain is below 3 nM.
Take `Cc1ncccc1[C@H]1C[C@@H](c2cccc3nc(N)ccc23)Nc2c(F)cnn21` [GSK137, 5-((5S,7R)-3-Fluoro-7-(2-methylpyridin-3-yl)-4,5,6,7-tetrahydropyrazolo[1,5-a]pyrimidin-5-yl)quinolin-2-amine]: the “reduction of mean TNP-specific IgM levels vs vehicle” value in data set [1] (15 mg/kg orally TID, day 12, p = 0.0027) amounted to 43%; in data set [1] (30 mg/kg orally TID, day 12, p < 0.0001), 58%. The “reduction of mean TNP-specific IgG levels vs vehicle” value in data set [1] (15 mg/kg orally TID, day 12, p = 0.0056) is on record as 58%; in data set [1] (30 mg/kg orally TID, day 12, p = 0.0023), 66%. In data set [1] (15 and 30 mg/kg, day 5 or day 8), the “inhibition of TNP-specific IgM level” value is on record as “did not inhibit”. In data set [1] (15 and 30 mg/kg, day 8), the “inhibition of serum TNP-specific IgG levels” value is given as “did not inhibit”. In the data set with splenic germinal centers (15 mg/kg), the “fraction of B220+ cells expressing clPARP within splenic B-cell follicles vs control” value is reported as “no significant difference”. The “number of GCs per follicle (mean ± SD)” value with splenic germinal centers (15 mg/kg orally TID, C57BL/6J mice, vehicle 0.5 ± 0.11, p = 0.04) worked out at 0.27 ± 0.06. For the same compound, the “numbers of B220+Ki-67+ cells within each GC vs vehicle” value in the data set with splenic germinal centers (15 mg/kg, unpaired t test, p = 0.01) is given as “significant reductions”. Further, the “plasmablasts and plasma cells as a percentage of total viable cells vs vehicle” value in data set [2] (15 mg/kg or 30 mg/kg, Fig. S6B) is given as “no statistically significant reductions”. Moreover, the “reduction of mean number of GC B cells per spleen vs vehicle” value is 53% in data set [2] (15 mg/kg, day 12) and 67% in data set [2] (30 mg/kg, day 12, p = 0.04). For the same compound, the “reduction of mean absolute number of Tfh cells per spleen vs vehicle” value is on record as 39% in data set [2] (15 mg/kg) and 34% in data set [2] (30 mg/kg). Further, the “reduction of frequency of GC B cells within total splenic B cells vs vehicle” value is listed as 61% in data set [2] (15 mg/kg, day 12, p = 0.0058) and 72% in data set [2] (30 mg/kg, day 12, p = 0.0031). For the same compound, the “reduction of mean frequency of Tfh cells as fraction of splenic CD4+ T cells vs vehicle” value in data set [2] (15 mg/kg, day 12, p = 0.014) is given as 48%; in data set [2] (30 mg/kg, day 12, p = 0.0041), 50%. The “number of plasmablasts and plasma cells (CD19+/intCD138+) in spleen vs vehicle” value in data set [2] (15 and 30 mg/kg, after immunization) is recorded as “no statistically significant difference”. Besides, the “macrophage, dendritic cell and natural killer cell markers (CD11c, CD11b, CD161) vs vehicle” value in data set [2] (data not shown) is listed as “no difference”. The “mean total CD4+ T-cell numbers per spleen” value in data set [2] (significant at 30 mg/kg (p = 0.032), not at 15 mg/kg) is listed as “return mean CD4^+ T-cell numbers to levels observed in naive mice”. Besides, the chromatographic logD in data set [3] (determined chromatographically, read-out: Chrom LogD) was 2.3. In data set [3] (log D modified for the number of aromatic rings), the “PFI (property forecast index)” value worked out at 6.3.
